Measured values taken from patent US9044527B2, “Wound care products with peracid compositions” (CHD Bioscience, Inc., priority 2011, dated 2015).

Experiments:
[1] = system: methicillin resistant staphylococcus aureus (MRSA); test: MRSA streaked blood agar plate treated with PPA film discs (simulated MIC test); type: cell-based; settings: 6 mm film discs made with 100 ppm and 1000 ppm PPA compound, incubated overnight
From the text: This bulk film material illustrated in the drawings can be easily fit between layers of dressing or gauze and protected from the moisture in the bandage. […] To test efficacy and stability of the incorporated PPA compound, six millimeter discs were cut out of the PPA treated matrices and placed onto a methicillin resistant staphylococcus aureus (MRSA) streaked blood agar plate. […] This method simulated the well-known minimum inhibitory concentration (MIC) test. The blood agar plates were incubated overnight at optimal temperature and then observed for microbial kill.
The control film disc was the diameter of the grown of the 1000 ppm disc. The discs were placed on the blood agar plate and were dissolved by the moisture from the agar which allowed the PPA compound to migrate out of the film. […] Thus the 1000 ppm ratio of ppm concentration to the circle of kill diameter was greater than for the 100 ppm concentration to the circle diameter in millimeters.

e. coli 25922 [2] = test: Kirby-Bauer growth inhibition (disk diffusion) assay; type: cell-based; settings: 10 μg gentamicin disc, 6 mm, 16-18 hours
Description: Kirby-Bauer growth inhibition (or disk diffusion susceptibility testing) is used to quantify the efficiency of antibiotics and/or to test the sensitivity of particular rapidly growing bacteria to an antibiotic.
A bacterial inoculum was prepared from log-phase cultures (ATCC e. coli 25922) to a standard density (approximately 1×10^8 CFU/ml, which is equivalent to a 0.5 McFarland turbidity). The inoculum was applied to a culture dish with Muller-Hinton nutrient agar.
Dissolvable thin film biocide preparations were prepared as Examples 1 or 3, but the spiked biocide was used at an original film-pour concentration of 20,000 ppm (recall that when the film-pour dries, it loses approximately 16-25× of its weight through solvent evaporation, and thus the final concentration of the biocide is much higher than the film-pour, although some is lost through evaporation as evidenced by the acetic acid smell during dry-down).
Samples of hydrogel (single FT cycle) were also used in some experiments where spiked biocide films were applied to the hydrogel surface and the bi-layer sample applied to the culture surface.
At the time of infection, test materials are applied to the surface of the agar. After a growth a 35-37° C. in air, for period of 16-18 hours, the diameter of the zone of inhibited bacteria growth can be visualized and measured with calipers. […]

e. coli 25922 [3] = settings: 10 μg gentamicin disc, 6 mm; cited from earlier work

CC(=O)C(=O)OO [PPA compound, peroxy pyruvic acid]
kill of MRSA (circle of kill diameter) [1]: in proportion to the PPA concentration in the disc

gentamicin [Sensi-Disc]
control zone inhibition diameter (e. coli 25922 [2]): agrees with published quality-control data | zone inhibition diameter, published quality-control data (e. coli 25922 [3]): 19-26 mm
